Test results from paper PMC10303920, “Competition between skin antimicrobial peptides and commensal bacteria in type 2 inflammation enables survival of S. aureus” (Cell reports, 2023).
No end group written: not given here.

Experiments:
S. aureus (ATCC35556) [1] = assay: Survival of S. aureus on mouse skin in inflammation models; format: in vivo, Balb/c mice
Excerpt: All experiments involving live animals were done with the approval of the Institutional Animal Care and Use Guidelines of the University of California, San Diego (Protocol number: S09074). To investigate influences of distinct type of skin inflammation on the microbial community on the skin surface, we employed Th2 and Th17 inflammation models using mixed sex of Il4ra^−/− Balb/c (Jackson Laboratory, ME), Camp^−/− Balb/c,[4] Flg^ft/ft Balb/c or WT Balb/c mice (Jackson Laboratory) (6–8 weeks). Mice were housed under a specific pathogen-free condition with 12hr light/12hr dark cycle at 20–22°C and 30–70% humidity. Mice were randomly selected, the back skin was shaved, treated with depilatory cream, rinsed with water, cleaned with alcohol swab twice. To induce Th2 inflammation, MC903 (50μL of 90μM in ethanol) was applied to the back skin of WT, Il4ra^−/− or Camp^−/− mice every day for 14 days. Control mice received equal volume of ethanol. Alternatively, a sterile patch (2 × 2cm) with OVA solution (100 μg/100 μL PBS) or PBS was placed on tape-stripped dorsal skin of Flg^ft/ft Balb/c mice (6–8 weeks, mixed sex) and covered with Tegaderm wound dressing film for 8 days (the patch was replaced every 2 days). Mice received 3 times of 8-day OVA exposures by 2-week intervals. […] The dorsal skin was disinfected with alcohol swabs twice, applied with a 6-mm TSB agar disc containing 1 × 10^6 CFU of S. aureus (ATCC35556), and covered with Tegaderm wound dressing film for initial 24 h for quantitative bacterial application. […]
Bacteria were cultured in tryptic soy broth (TSB) at 37°C overnight, washed with PBS, and re-suspended in PBS at 1 × 10^6 CFU/5μL. […] The entire dorsal skin was then covered with wound dressing film for quantitative bacterial application and to avoid contamination.[18] […]
Survival of S. aureus and CoNS were measured on Baird-Parker agar for S. aureus or mannitol salt agar with egg yolk for total Staphylococcus species using easySpiral automatic diluter plater with exponential mode or circle mode and automatic colony counter (Interscience Inc., France). […]

ShA9-WT and ShA9-ΔLanti = assay: Growth inhibition of ShA9-WT and ShA9-ΔLanti by human and murine AMPs (OD600); format: cell-based, Staphylococcus hominis; settings: 90% RPMI/10% TSB, 30°C, 24 h, mean of duplicate technical replicates, Figure 4E
Experimental: Staphylococcus strains collected from normal skin from healthy subjects or lesional skin from AD patients were cultured in TSB overnight. Bacteria were washed with PBS and resuspended to 90% RPMI media and 10% TSB. Bacteria (1 × 10^5 CFU/mL) were incu bated with or without human AMPs (LL-37, hBD-2, hBD-3) or mouse cathelin-related AMP (CRAMP) in 90% RPMI media and 10% TSB (100 μL) in each well of a 96-well plate at 30°C for 24 h. Bacterial growth was assessed by measuring OD600. Minimal inhibitory concentration was defined as the lowest concentration which prevent visible bacterial growth (<5% of OD600 value of the con trol well).

S. aureus (ATCC35556) [2] = assay: Survival of S. aureus on mouse skin after topical steroid; format: in vivo, Balb/c WT mice; settings: 0.1% triamcinolone topical at 24 and 32 h after S. aureus, read at 48 h; Figure 2L
Experimental: (§1) Back skin of Balb/c WT mice (8 weeks, female) were shaved and treated with MC903 as described above. After decontaminating the skin with alcohol swab twice, S. aureus (ATCC35556, 1 × 10^6 CFU) were applied with a TSB agar disc and whole back skin was covered with Tegaderm wound dressing film for 24 h. Tegaderm and the TSB disc were removed, and then 0.1% Triamcinolone (Perrigo) or Vaseline (50μg) were applied twice on back skin at 24 and 32 h after S. aureus were applied. Skin swab and biopsy was ob tained to measure S. aureus survival and immune response of the skin, respectively, at 48 h after bacteria application.
Survival of S. aureus and CoNS were measured on Baird-Parker agar for S. aureus or mannitol salt agar with egg yolk for total Staphylococcus species using easySpiral automatic diluter plater with exponential mode or circle mode and automatic colony counter (Interscience Inc., France). To determine total CoNS survival, CFUs on mannitol salt agar were subtracted by CFUs on Baird-Parker agar. To distinguish ShA9-WT and ShA9-ΔLanti mutant, CoNS colonies with pink color without halo were randomly picked from mannitol salt agar plate and conducted colony PCR with gene specific primers for ShA9-lantibiotic-α (key resources table).

[3] = test system: Il17a, Il4, Il13, Camp, Defb14, Defb4 expression; assay: qPCR of cytokine and AMP genes in mouse skin after topical steroid; format: in vivo, Balb/c WT mice; settings: topical triamcinolone
Experimental: as §1
To determine expression of mRNA for Il4, Il13, Il17a, Tslp, Defb4, […] or Camp, 6mm punch biopsy was obtained from the mouse back skin. Skin biopsy was stored in 1mL of RNAlater solution at −80°C. Total RNA was extracted with PureLink RNA extraction kit (ThermoScientific Fisher) and one μg of total RNA was reversely transcribed with VERSO cDNA synthesis kit (ThermoScientific Fisher). Predeveloped qPCR assay primer sets (IDT oligo, listed in key resources table) were used for analyzing the expressions of these genes. The mRNA expression of each gene was evaluated by qPCR and normalized to GAPDH expression (key resources table).

[4] = test system: AMP gene expression at wound edge; assay: AMP response to partial-thickness skin wounds of mice treated by MC903; format: in vivo, Balb/c mice; settings: MC903 or vehicle for 14 days, scratched by 18 gauge needle, biopsy at wound edge after 48 hours; Figure S3
Excerpt: All experiments involving live animals were done with the approval of the Institutional Animal Care and Use Guidelines of the University of California, San Diego (Protocol number: S09074). To investigate influences of distinct type of skin inflammation on the microbial community on the skin surface, we employed Th2 and Th17 inflammation models using mixed sex of Il4ra^−/− Balb/c (Jackson Laboratory, ME), Camp^−/− Balb/c,[4] Flg^ft/ft Balb/c or WT Balb/c mice (Jackson Laboratory) (6–8 weeks). Mice were housed under a specific pathogen-free condition with 12hr light/12hr dark cycle at 20–22°C and 30–70% humidity. Mice were randomly selected, the back skin was shaved, treated with depilatory cream, rinsed with water, cleaned with alcohol swab twice. To induce Th2 inflammation, MC903 (50μL of 90μM in ethanol) was applied to the back skin of WT, Il4ra^−/− or Camp^−/− mice every day for 14 days. […] The dorsal skin was disinfected with alcohol swabs twice, applied with a 6-mm TSB agar disc containing 1 × 10^6 CFU of S. aureus (ATCC35556), and covered with Tegaderm wound dressing film for initial 24 h for quantitative bacterial application. […] The mRNA expression of each gene was evaluated by qPCR and normalized to GAPDH expression (key resources table). page 4: Figure S3. […] P-value (*P<0.05 and **P<0.01) was calculated by two-tailed unpaired parametric t-test. […]

## CC(C)Cn1cnc2c(N)nc3ccccc3c21 [imiquimod]
S. aureus (ATCC35556) [1]; Flg^ft/ft mice, 5% imiquimod cream daily for 7 days, S. aureus for 48 hours, Figure S6
  Protection against S. aureus on imiquimod-treated skin: enhanced protection against S. aureus

## CRAMP (GLL-33)
ShA9-WT and ShA9-ΔLanti
  Sensitivity of ShA9-WT to the AMP compared with ShA9-ΔLanti (growth inhibition): more sensitive

## C[C@]12C=CC(=O)C=C1CC[C@H]1[C@@H]3C[C@@H](O)[C@](O)(C(=O)CO)[C@@]3(C)C[C@H](O)[C@@]12F [triamcinolone]
S. aureus (ATCC35556) [2]
  Survival of S. aureus on MC903-pretreated mouse skin: decreased survival of S. aureus
[3]; no MC903, Figure 2F
  Il17a expression, healthy skin after S. aureus exposure: decreased
[3]; no MC903, Figure 2I
  Camp expression, healthy skin after S. aureus exposure: decreased
[3]; no MC903, Figure 2J
  Defb14 expression, healthy skin after S. aureus exposure: decreased
[3]; Figure 2G
  Il4 expression, skin with Th2 inflammation (MC903 and S. aureus): decreased
[3]; Figure 2H
  Il13 expression, skin with Th2 inflammation (MC903 and S. aureus): decreased
[3]; Figure 2I
  Camp expression, skin with Th2 inflammation (MC903 and S. aureus): increased
[3]; Figure 2J
  Defb14 expression, skin with Th2 inflammation (MC903 and S. aureus): increased
[3]; Figure 2K
  Defb4 expression, skin with Th2 inflammation (MC903 and S. aureus): increased

## human beta-defensin 2 [hBD-2]
ShA9-WT and ShA9-ΔLanti
  Sensitivity of ShA9-WT to the AMP compared with ShA9-ΔLanti (growth inhibition): more sensitive

## C=C1/C(=C\C=C2/CCC[C@]3(C)[C@@H]([C@H](C)/C=C/[C@@H](O)C4CC4)CC[C@@H]23)C[C@@H](O)C[C@@H]1O [MC903]
S. aureus (ATCC35556) [1]; WT Balb/c mice, MC903 50 μL of 90 μM daily for 14 days, S. aureus 1 × 10^6 CFU for 48 h, Figure S1G
  S. aureus survival on the skin after MC903 pretreatment relative to untreated mice: increased
[4]
  AMP response to skin wounding after MC903: suppressed

## human beta-defensin 3 (GIINTLQKYYCRVRGGRCAVLSCLPKEEQIGKCSTRGRKCCRRKK; ends and bridges not checked; cysteine pairing not given here; UniProt P81534 23-67, looked up) [hBD-3, human β-defensin, synthetic AMP (Peptide International)]
ShA9-WT and ShA9-ΔLanti
  Sensitivity of ShA9-WT to the AMP compared with ShA9-ΔLanti (growth inhibition): more sensitive

B1: ovalbumin (protein, UniProt P01012 2-386, looked up)
Ovalbumin: GSIGAASMEFCFDVFKELKVHHANENIFYCPIAIMSALAMVYLGAKDSTRTQINKVVRFDKLPGFGDSIEAQCGTSVNVHSSLRDILNQITKPNDVYSFSLASRLYAEERYPILPEYLQCVKELYRGGLEPINFQTAADQARELINSWVESQTNGIIRNVLQPSSVDSQTAMVLVNAIVFKGLWEKAFKDEDTQAMPFRVTEQESKPVQMMYQIGLFRVASMASEKMKILELPFASGTMSMLVLLPDEVSGLEQLESIINFEKLTEWTSSNVMEERKIKVYLPRMKMEEKYNLTSVLMAMGITDVFSSSANLSGISSAESLKISQAVHAAHAEINEAGREVVGSAEAGVDAASVSEEFRADHPFLFCIKHIATNAVLFFGRCVSP
notes: ovalbumin used for epicutaneous sensitization to induce Th2 inflammation
S. aureus (ATCC35556) [1]; Flg^ft/ft Balb/c mice, 100 μg OVA in 100 μL PBS, 3 exposure cycles, S. aureus 1 × 10^6 CFU for 48 h, Figure S1M
  S. aureus survival on the skin after OVA sensitization relative to untreated mice: increased colonization by S. aureus
